# In patent EP0369744B1, “Xanthine derivatives, process for their preparation and pharmaceutical compositions” (SMITHKLINE BEECHAM PHARMA GmbH, priority 1988, dated 1990):
# System: gerbils
# Assay: Delayed neuronal death in gerbils after transient forebrain ischaemia
# Format: in vivo
# Method: Ischaemia was produced in adult male gerbils by occlusion of both common carotid arteries for 3 minutes under halothane/nitrous oxide anaesthesia. During surgery the animals were placed upon a warming blanket. The ischaemia led to neuronal degeneration and to disturbed brain function.
# Brains were removed 2 weeks later and 12 µm thick coronal slices were examined light microscopically for neuronal degeneration.
# Three groups of animals were used: • 1. sham ligated controls • 2. solvent-treated ligated controls • 3. compound-treated ligated animals The compound was administered 1 hour before the ligation period.
# Means ± SEM (n) of histopathological score [HPS] which reflects the degree of neuronal damage in the hippocampal CA1 field: 0 = no damaged neurons 1 = mild necrosis 2 = moderate necrosis 3 = severe necrosis 4 = complete necrosis
smiles,measurement,value
"O=c1c2[nH]cnc2n(CC2CC2)c(=O)n1CC1CC1 [Example 1, 1,3-Di-cyclopropylmethyl xanthine]",ischaemia induced neuronal degeneration (conclusion),significantly prevented ischaemia induced neuronal degeneration
